Read-outs that look alike come from different tables or passages of the source. Square brackets hold non-standard residues; d marks the D form. Peptide text beside a SMILES is read from it. * marks the point of attachment. NHOctadecyl = CCCCCCCCCCCCCCCCCCN*; Morpholide = C1CN(*)CCO1; PhAc = O=C(Cc1ccccc1)*; Ahx = NCCCCCC(=O)O
Experiments:
VLA-4 [1] = target: T1, VLA-4 (Homo sapiens, UniProt P05556+P13612); details: cited from earlier work
[2] = test system: murine contact hypersensitivity; details: cited from earlier work
[3] = Elices et al. 1993; by proteolytic degradation; cited from earlier work
Water solubility = assay type: physicochemical
VLA-4 [4] = target: T1, VLA-4; assay: cell-based; assay type: cell-based; design: host or cells: Jurkat (human T lymphoblastic line)
Method in brief: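 51Cr-labelled Jurkat cells (human T lymphoblastic) were preincubated 30 min at about 22 °C with peptide, then allowed to bind 30 min at 37 °C to wells coated with CS-1 peptide or CS-1-OVA. After washing, bound cells were lysed with SDS and counted. IC50 is the peptide concentration halving binding, normalized to plate controls.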

[5] = test system: New Zealand white rabbits; assay: Treatment of asthmatic rabbits (house dust mite antigen challenge, crossover); assay type: in vivo, rabbit
Method: Six New Zealand white rabbits were immunized with house dust mite antigen from birth through four months of age. Upon immunization, three rabbits received a single nebulizer administration of the inhibitor peptide N-phenylacetyl-Leu-Asp-Phe-morpholinamide in aqueous 50 percent ethanol as diluent in an amount of 100 mg/kg, and the other three received diluent alone. All of the rabbits were challenged with house dust mite antigen about 15-30 minutes after administration of the peptide, with those animals not receiving peptide serving as controls.
Once immunized and challenged, the inflammatory state subsides to a basal level within about three weeks. The three animals used as controls were thereafter used as subjects for receipt of an inhibitor peptide, and the three rabbits that initially received the peptide can serve as controls.
Such a crossover study was done here. Thus, the three initial control rabbits were treated with the above inhibitor peptide in the above diluent at a time more than three weeks after the above study, and the three previous recipients of the peptide were administered the diluent alone. All six were than challenged again.
Initial pulmonary function, measured by dynamic compliance (Cdyn) and lung resistance (RL), and bronchoalveolar lavage (BAL) to obtain an effector cell count, here eosinophils, were conducted prior to administration of the peptide or diluent for both portions of this crossover study. Similar assays were then taken one-half hourly after challenge for six hours (early phase allergic reaction) and at 24 hours after challenge (late stage allergic reaction) for both portions of this study.
These studies were conducted by Dr. W. J. Metzger of East Carolina University, Greenville, N.C. as described by W. J. Metzger in CRC Handbook of Late Phase Reactions, W. Dorsch, ed., Chapter 35, CRC Press, Boca Raton, Fla. (1990) pages 347-362.
The results of this study for the pulmonary function parameters are shown in FIG. 4A and FIG. 4B, in which data for the challenged, inhibitor peptide-treated animals are shown as open circles and data for the challenged, untreated, control animals are shown in blackened circles.

[6] = Retention of potency in PBS containing 10 percent serum; details: PBS at 7.2-7.4 containing 10 percent mouse or human serum
[7] = normalized IC50 relative to standard peptide of SEQ ID NO:3 (=1), about one-tenth or less of the standard is assigned zero
[8] = 100 mg/kg single nebulizer administration, early phase 2-4 hours, versus challenged controls
[9] = 100 mg/kg single nebulizer administration, late phase 24 hours, versus challenged controls

T1 sequence (P13612 34-1032): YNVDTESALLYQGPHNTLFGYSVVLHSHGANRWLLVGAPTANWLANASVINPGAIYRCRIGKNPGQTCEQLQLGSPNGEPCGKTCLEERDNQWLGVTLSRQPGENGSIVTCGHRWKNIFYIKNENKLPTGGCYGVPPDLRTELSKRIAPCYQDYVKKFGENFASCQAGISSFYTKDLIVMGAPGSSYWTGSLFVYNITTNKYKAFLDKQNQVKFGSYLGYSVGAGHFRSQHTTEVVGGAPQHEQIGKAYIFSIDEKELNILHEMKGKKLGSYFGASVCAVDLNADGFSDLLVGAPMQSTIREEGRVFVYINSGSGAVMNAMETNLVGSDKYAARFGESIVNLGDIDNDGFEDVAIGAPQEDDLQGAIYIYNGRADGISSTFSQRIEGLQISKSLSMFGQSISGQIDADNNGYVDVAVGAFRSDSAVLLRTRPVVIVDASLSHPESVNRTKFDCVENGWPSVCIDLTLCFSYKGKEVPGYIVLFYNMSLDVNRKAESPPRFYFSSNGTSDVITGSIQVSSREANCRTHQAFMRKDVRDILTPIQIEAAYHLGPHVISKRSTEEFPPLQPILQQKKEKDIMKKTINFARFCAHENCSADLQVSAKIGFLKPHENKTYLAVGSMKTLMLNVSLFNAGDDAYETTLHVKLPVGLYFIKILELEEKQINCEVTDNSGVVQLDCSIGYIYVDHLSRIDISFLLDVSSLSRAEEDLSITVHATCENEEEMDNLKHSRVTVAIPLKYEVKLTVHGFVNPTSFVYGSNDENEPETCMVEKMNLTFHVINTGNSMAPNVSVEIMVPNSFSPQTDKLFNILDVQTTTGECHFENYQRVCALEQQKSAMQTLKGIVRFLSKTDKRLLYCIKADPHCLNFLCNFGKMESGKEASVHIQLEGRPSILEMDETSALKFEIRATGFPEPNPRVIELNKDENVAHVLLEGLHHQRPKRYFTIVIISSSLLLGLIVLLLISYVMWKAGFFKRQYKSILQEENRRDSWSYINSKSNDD
T1 sequence (P05556 21-798): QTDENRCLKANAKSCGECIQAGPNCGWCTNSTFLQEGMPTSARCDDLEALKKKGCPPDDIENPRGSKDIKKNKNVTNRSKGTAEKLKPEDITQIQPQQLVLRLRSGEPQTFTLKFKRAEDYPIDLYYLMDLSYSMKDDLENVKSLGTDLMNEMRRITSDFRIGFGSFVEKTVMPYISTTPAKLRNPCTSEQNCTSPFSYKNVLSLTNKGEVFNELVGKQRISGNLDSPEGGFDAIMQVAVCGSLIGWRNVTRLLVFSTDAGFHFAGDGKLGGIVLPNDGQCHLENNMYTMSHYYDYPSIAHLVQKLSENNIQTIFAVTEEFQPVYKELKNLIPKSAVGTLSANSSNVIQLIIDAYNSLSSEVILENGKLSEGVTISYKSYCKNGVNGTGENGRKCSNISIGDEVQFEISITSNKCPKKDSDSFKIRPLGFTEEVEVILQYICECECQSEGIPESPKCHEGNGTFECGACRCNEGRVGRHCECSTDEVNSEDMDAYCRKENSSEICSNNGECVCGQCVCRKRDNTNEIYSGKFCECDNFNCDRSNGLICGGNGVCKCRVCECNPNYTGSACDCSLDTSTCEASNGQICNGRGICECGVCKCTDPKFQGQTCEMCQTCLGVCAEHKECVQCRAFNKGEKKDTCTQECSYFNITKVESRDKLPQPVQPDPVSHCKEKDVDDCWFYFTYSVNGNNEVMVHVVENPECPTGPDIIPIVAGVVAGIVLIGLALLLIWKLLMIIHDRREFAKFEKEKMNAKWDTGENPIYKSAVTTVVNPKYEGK

Q: With Leu-Asp-Val [LDV] as the molecule, how does the “affinity of VLA-4 lower than for the native CS-1 25-mer” value (VLA-4 [1]) read?
A: at least two

Q: Which results are given for `CC[C@H](C)[C@H](NC(=O)[C@H](CCC(=O)O)NC(=O)[C@@H]1CCCN1C(=O)CNC(=O)[C@H](Cc1c[nH]cn1)NC(=O)[C@H](CC(C)C)NC(=O)[C@H](CC(N)=O)NC(=O)[C@@H]1CCCN1C(=O)[C@H](Cc1c[nH]cn1)NC(=O)[C@@H]1CCCN1C(=O)[C@H](CC(C)C)NC(=O)[C@@H](NC(=O)[C@@H](NC(=O)[C@H](CC(C)C)NC(=O)[C@H](CCC(N)=O)NC(=O)[C@@H]1CCCN1C(=O)[C@H](CC(C)C)NC(=O)[C@H](CCC(=O)O)NC(=O)[C@@H](N)CC(=O)O)C(C)C)[C@@H](C)O)C(=O)N[C@@H](CC(C)C)C(=O)N[C@@H](CC(=O)O)C(=O)N[C@H](C(=O)N1CCC[C@H]1C(=O)N[C@@H](CO)C(=O)N[C@H](C(=O)O)[C@@H](C)O)C(C)C` [CS-1 peptide] (H-DELPQLVTLPHPNLHGPEILDVPST-OH)?
A: inhibition of contact hypersensitivity ([2]; Elices et al. 1993): unable to reproduce inhibition; inhibition of recruitment of T lymphocytes to skin inflammatory sites ([2]; Ferguson et al. 1991): partially inhibited; clearance from blood circulation [3]: rapidly cleared

Q: Which water solubility (Water solubility) does the source give for `CCCCCCCCCCCCCCCCCCNC(=O)CCCCCNC(=O)[C@@H]1CCCN1C(=O)[C@H](Cc1ccccc1)NC(=O)[C@H](CC(=O)O)NC(=O)[C@H](CC(C)C)NC(=O)Cc1ccccc1` [phenylacetyl-Leu-Asp-Phe-Pro-NH(CH2)5 C(O)NHC18 H37] (PhAc-LDFP[Ahx]-NHOctadecyl) here?
A: not water-soluble

Q: And the “RELATIVE POTENCY (relative peptide inhibition of VLA-4 binding CS-1)” value (VLA-4 [4]; [7])?
A: 1

Q: Which “Cdyn, % Reduction, Early phase” value [5, 8] does the source give for `CC(C)C[C@H](NC(=O)Cc1ccccc1)C(=O)N[C@@H](CC(=O)O)C(=O)N[C@@H](Cc1ccccc1)C(=O)N1CCOCC1` [X L D F Z phenylacetyl morpholinamide, N-phenylacetyl-Leu-Asp-Phe-morpholinamide] (PhAc-Leu-Asp-Phe-Morpholide) here?
A: 94.4%

Q: And the “RL, % Reduction, Early phase” value [5, 8]?
A: 80.1%

Q: What about the “Cdyn, % Reduction, Late phase” value [5, 9] of the same molecule?
A: 86.6%

Q: And the “RL, % Reduction, Late phase” value [5, 9]?
A: 82.6%

Q: What about the “Cdyn value over six hours after challenge” value ([5]; FIG. 4A, 100 mg/kg nebulized) of the same molecule?
A: stayed at about the initial value

Q: And the “RL values over six hours after challenge” value ([5]; FIG. 4B, 100 mg/kg nebulized)?
A: ≤ 200% of initial value

Q: And the IC50 (VLA-4 [4]; Jurkat cells / solid phase-bound CS-1, read-out: absolute IC50 value)?
A: 180 to 300 nM

Q: What about the “RELATIVE POTENCY (relative peptide inhibition of VLA-4 binding CS-1)” value (VLA-4 [4]; [7]) of the same molecule?
A: 844

Q: And the “loss of potency after 24 hours” value [6]?
A: no loss of potency

Q: With `CC(C)C[C@H](NC(=O)Cc1ccccc1)C(=O)N[C@@H](CC(=O)O)C(=O)N[C@@H](Cc1c[nH]c2ccccc12)C(=O)N1CCC[C@@H]1C(N)=O` [X L D W p phenylacetyl amide] (PhAc-LDW[dP]-NH2) as the molecule, how does the “RELATIVE POTENCY (relative peptide inhibition of VLA-4 binding CS-1)” value (VLA-4 [4]; [7]) read?
A: 184

Q: With `CC(C)C[C@H](NC(=O)[C@H](CC(=O)O)NC(=O)Cc1ccccc1)C(=O)N[C@@H](Cc1ccccc1)C(=O)N1CCC[C@@H]1C(N)=O` [X D L F p phenylacetyl amide, N-phenylacetyl-Asp-Leu-Phe-D-Pro-NH2, reference compound] (PhAc-DLF[dP]-NH2) as the molecule, how does the “RELATIVE POTENCY (relative peptide inhibition of VLA-4 binding CS-1)” value (VLA-4 [4]; [7]) read?
A: < 1

Q: With `CC(C)C[C@H](NC(=O)Cc1ccccc1)C(=O)N[C@@H](CC(=O)O)C(=O)NNC(=O)OC(C)(C)C` [X L D Z phenylacetyl N'-t-Boc-hydrazide] as the molecule, how does the “RELATIVE POTENCY (relative peptide inhibition of VLA-4 binding CS-1)” value (VLA-4 [4]; [7]) read?
A: 2

Q: With `CC(C)C[C@H](NC(=O)Cc1ccccc1)C(=O)N[C@@H](CC(=O)O)C(=O)NC1CCCCN(CC(N)=O)C1=O` (stereo partly shown) as the molecule, how does the “RELATIVE POTENCY (relative peptide inhibition of VLA-4 binding CS-1)” value (VLA-4 [4]; [7]) read?
A: 97

Q: With `CC(C)C[C@H](NC(=O)c1ccncc1)C(=O)N[C@@H](CC(=O)O)C(=O)N[C@@H](Cc1ccc(O)cc1)C(=O)N1CCCCC1` as the molecule, how does the “RELATIVE POTENCY (relative peptide inhibition of VLA-4 binding CS-1)” value (VLA-4 [4]) read?
A: 24

Q: With `CC(C)C[C@H](NC(=O)Cc1ccccc1)C(=O)N[C@@H](CC(=O)O)C(=O)NCCN1CCOCC1` as the molecule, how does the “RELATIVE POTENCY (relative peptide inhibition of VLA-4 binding CS-1)” value (VLA-4 [4]; [7]) read?
A: 13

Q: Which “RELATIVE POTENCY (relative peptide inhibition of VLA-4 binding CS-1)” value (VLA-4 [4]) does the source give for `CC(C)C[C@H](N)C(=O)N[C@@H](CC(=O)O)C(=O)N[C@@H](Cc1ccccc1)C(N)=O` [L D F free amine amide] (H-Leu-Asp-Phe-NH2) here?
A: 0
